Measurements published in patent publication US20100286278A1, “Composition comprising an HDAC inhibitor in combination with a retinoid” (DSM IP ASSETS B.V., priority 2004, published 2010).

Test system: transglutaminase 1 (TG1) mRNA in human epidermal keratinocytes
Experiment: Expression of transglutaminase 1 (TG1) by differentiating keratinocytes (real time PCR of TG1 mRNA)
Format: cell-based
Details: substances alone: retinol 1×10−10 M, TSA 10−9 M; 1.3 mM calcium; 72 hours; relative to non-treated cells
Source text: This example illustrates how the HDAC inhibitor Trichostatin A and Retinol work synergistically. An in vitro cell culture of human primary keratinocytes has been chosen as test system. This in vitro cell culture model is useful to study differentiation processes and is able to simulate the in vivo situation in human skin (Poumay et al., 1999). To monitor differentiation processes in vitro and in vivo transglutaminase 1 is a well known marker molecule (Polakowska et al., 1999).
Epidermal keratinocytes were isolated from human foreskin biopsies and cultured in keratinocyte serum free medium (KSFM made by GIBCO) in a growth chamber with 37° C. and 5% CO2. At the second passage, cells were transferred to 6 well plates and allowed to reach approximately 50% surface confluence.
Retinol and TSA were solubilized in ethanol or ethanol/tetrahydrofuran respectively. Retinol solutions were handled under yellow light conditions only. […]
Seventy-two hours after the beginning of the treatment, cells were harvested and the RNA extracted. […] Relative quantification of TG1 mRNA transcript levels in control versus treatment cultures were determined using multiplexed real time PCR analysis. […]

CC1=C(/C=C/C(C)=C/C=C/C(C)=C/CO)C(C)(C)CCC1 [Retinol]
modulation of the terminal differentiation process in epidermal keratinocytes (TG1 mRNA): only weak modulation

CC(/C=C/C(=O)NO)=C\[C@@H](C)C(=O)c1ccc(N(C)C)cc1 [TSA, Trichostatin A]
modulation of the terminal differentiation process in epidermal keratinocytes (TG1 mRNA): only weak modulation
